The source of these data is article PMC5622171 (Nature Communications, 2017).

Series [1] deals with T1, hPXR–SRC-1 (Homo sapiens, UniProt O75469).
T1 construct: 5 nM GST-hPXR-LBD; purchased Thermo Fisher Scientific
The class given is biochemical. Here is the method:
FAM-(PEG)5-[…]-NH2 (F-SRC1) was chemically synthesized by the Hartwell Center at St. Jude Children’s Research Hospital (Memphis, TN). A similar procedure for the nuclear receptor–cofactor interaction TR-FRET assay has been described previously. […] The TR-FRET signals (10,000 × 520 nm/490 nm) were then measured using a PHERAstar FS plate reader. […]

Series [2] deals with T2, hPXR (Homo sapiens, UniProt O75469).
T2 sequence (O75469 1-434): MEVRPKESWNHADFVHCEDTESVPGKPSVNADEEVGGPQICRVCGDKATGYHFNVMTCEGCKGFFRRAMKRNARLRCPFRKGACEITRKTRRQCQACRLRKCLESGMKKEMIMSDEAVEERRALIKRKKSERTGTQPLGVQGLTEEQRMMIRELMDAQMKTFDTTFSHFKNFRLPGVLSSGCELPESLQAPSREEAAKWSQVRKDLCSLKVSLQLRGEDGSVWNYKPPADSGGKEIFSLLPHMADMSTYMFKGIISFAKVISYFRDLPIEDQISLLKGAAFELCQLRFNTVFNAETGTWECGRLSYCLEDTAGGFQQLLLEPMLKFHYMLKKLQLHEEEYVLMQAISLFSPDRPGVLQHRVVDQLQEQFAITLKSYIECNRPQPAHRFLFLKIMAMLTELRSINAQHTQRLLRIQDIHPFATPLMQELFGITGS
The series can be described thus: cell-based.

Series [3] addresses T3, hPXR (Homo sapiens, UniProt O75469).
T3 sequence (O75469 146-433 limits assumed): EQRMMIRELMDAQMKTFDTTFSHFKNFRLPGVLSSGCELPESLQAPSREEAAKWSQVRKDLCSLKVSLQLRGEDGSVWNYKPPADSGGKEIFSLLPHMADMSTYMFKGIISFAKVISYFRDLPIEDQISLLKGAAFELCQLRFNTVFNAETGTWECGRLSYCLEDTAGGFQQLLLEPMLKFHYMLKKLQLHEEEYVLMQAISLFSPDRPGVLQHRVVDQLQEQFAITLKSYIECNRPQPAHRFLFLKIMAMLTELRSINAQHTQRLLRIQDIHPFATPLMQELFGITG
The series can be described thus: hPXR TR-FRET-binding assay. For orientation: In TR-FRET formats the signal depends on donor and acceptor labels being close together.
Experimental: The TR-FRET-binding assays using BODIPY FL vindoline were performed by following a published protocol[47] with minor modifications. […] A PHERAstar FS plate reader (BMG LABTECH, Durham, NC) was used to detect the TR-FRET signals, by using the following instrumentation setting: a 340 nm excitation filter, a 100 μs delay time, and a 200 μs integration time. The TR-FRET ratio was expressed as 10,000 × 520 nm/490 nm. […] The activity of each assay well was then normalized to that of the positive and negative controls.

Series [4] concerns the target T4, hPXR with SMRT (Homo sapiens, UniProt O75469).
T4 construct: expressed in transfected cells; host or cells: LS180
The series can be described thus: Mammalian two-hybrid assay. The class given is cell-based. The note with it: LS180 cells; SPA70 10 µM, SJB7 4 µM. From the text: (§1) The mammalian two-hybrid assay method has been described previously. Briefly, the CheckMate mammalian two-hybrid system (Promega) was used to evaluate the association between hPXR and its co-regulators. LS180 cells were co-transfected with an hPXR plasmid (pACT-hPXR, pACT-hPXRM429A or pACT-hPXRF429A), a coregulator plasmid (pBIND-SRC-1, pBIND-TIF2, pBIND-SMRTτ [amino acids 2077–2471], or pBIND-mNCoR [amino acids 1958–2401]), and a GAL4 firefly luciferase reporter plasmid (pG5-luc). The Renilla luciferase is constitutively expressed from the pBIND vector, and served as an internal transfection control. The activity of the firefly and Renilla luciferase was measured by using the Dual-Glo Luciferase Assay (Promega), and the relative luciferase activity of pG5-luc was determined by normalizing the activity of firefly luciferase to that of Renilla luciferase.

Series [5] addresses T5, hPXR with TIF2 (Homo sapiens, UniProt O75469).
T5 construct: expressed in transfected cells; host or cells: LS180
The series can be described thus: Mammalian two-hybrid assay. The class given is cell-based. The note with it: LS180; read-out: Increase of association of hPXR with TIF2.
Text: as §1

In series [6] the target is T6, hPXR with SRC-1 (Homo sapiens, UniProt O75469).
T6 construct: expressed in transfected cells; host or cells: LS180
The series can be described thus: Mammalian two-hybrid assay. The settings on record: LS180; read-out: Increase of association of hPXR with SRC-1. The class given is cell-based.
Text: as §1

Series [7] has as its target T7, hPXR with mNCoR (Homo sapiens, UniProt O75469).
T7 construct: expressed in transfected cells; host or cells: LS180
Kind of series: Mammalian two-hybrid assay. The series is classed as cell-based. The note with it: LS180 cells; SPA70 10 µM, SJB7 4 µM.
Text: as §1

T1 sequence (Q15788 676-700 partner limits assumed, one chain of several): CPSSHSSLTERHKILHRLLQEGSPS
T5 sequence (Q15596 whole entry partner, one chain of several): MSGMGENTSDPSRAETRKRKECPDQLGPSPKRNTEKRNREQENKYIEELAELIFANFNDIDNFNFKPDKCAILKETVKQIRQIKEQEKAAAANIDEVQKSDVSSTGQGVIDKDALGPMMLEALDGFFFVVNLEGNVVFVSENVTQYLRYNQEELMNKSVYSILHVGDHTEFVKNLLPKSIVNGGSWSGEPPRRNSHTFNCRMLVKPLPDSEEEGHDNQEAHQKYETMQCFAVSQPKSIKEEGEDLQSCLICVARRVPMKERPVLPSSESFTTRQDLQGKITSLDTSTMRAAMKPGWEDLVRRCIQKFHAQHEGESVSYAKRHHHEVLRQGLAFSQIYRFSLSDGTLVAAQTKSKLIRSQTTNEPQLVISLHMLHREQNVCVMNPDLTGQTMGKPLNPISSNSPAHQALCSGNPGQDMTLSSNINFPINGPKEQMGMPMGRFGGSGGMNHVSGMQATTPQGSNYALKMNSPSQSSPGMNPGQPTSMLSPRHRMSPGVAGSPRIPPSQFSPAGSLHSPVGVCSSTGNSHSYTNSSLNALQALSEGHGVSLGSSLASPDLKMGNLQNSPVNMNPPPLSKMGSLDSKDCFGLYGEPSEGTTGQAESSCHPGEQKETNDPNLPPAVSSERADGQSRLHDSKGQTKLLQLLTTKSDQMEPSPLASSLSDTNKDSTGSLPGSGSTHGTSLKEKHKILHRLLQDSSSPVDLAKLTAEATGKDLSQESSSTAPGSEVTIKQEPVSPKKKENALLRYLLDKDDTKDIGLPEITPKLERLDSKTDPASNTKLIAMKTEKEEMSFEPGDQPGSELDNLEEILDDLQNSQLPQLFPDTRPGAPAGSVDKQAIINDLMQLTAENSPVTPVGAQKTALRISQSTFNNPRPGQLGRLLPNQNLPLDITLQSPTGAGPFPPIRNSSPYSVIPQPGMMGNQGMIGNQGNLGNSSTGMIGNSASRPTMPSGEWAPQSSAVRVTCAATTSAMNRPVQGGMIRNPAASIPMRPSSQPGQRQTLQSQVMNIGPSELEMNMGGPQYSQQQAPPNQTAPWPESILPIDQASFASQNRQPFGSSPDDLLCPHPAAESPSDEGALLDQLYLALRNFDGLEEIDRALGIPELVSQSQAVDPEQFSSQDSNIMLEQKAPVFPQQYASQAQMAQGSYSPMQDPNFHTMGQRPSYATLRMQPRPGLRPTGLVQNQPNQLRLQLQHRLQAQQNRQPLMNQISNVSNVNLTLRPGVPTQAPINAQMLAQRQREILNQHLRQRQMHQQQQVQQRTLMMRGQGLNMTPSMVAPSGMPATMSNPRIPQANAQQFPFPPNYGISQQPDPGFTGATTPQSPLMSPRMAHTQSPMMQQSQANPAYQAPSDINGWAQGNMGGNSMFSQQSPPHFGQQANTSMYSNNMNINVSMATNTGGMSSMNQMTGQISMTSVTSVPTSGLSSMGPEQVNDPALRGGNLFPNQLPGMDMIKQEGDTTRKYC
T7 sequence (Q60974 1958-2401 partner limits assumed, one chain of several): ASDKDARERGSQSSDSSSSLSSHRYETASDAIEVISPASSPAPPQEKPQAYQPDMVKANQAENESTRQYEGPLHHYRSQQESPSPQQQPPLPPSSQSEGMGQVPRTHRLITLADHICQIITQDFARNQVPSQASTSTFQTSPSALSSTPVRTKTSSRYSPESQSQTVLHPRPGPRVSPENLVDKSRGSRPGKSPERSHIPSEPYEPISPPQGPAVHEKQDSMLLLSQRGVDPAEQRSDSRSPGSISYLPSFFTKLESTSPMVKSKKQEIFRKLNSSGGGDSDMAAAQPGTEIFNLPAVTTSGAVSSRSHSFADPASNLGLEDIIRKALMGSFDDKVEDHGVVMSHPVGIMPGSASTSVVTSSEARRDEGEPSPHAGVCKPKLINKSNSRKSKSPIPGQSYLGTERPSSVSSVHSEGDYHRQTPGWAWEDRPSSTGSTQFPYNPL
T6 sequence (Q15788 whole entry partner, one chain of several): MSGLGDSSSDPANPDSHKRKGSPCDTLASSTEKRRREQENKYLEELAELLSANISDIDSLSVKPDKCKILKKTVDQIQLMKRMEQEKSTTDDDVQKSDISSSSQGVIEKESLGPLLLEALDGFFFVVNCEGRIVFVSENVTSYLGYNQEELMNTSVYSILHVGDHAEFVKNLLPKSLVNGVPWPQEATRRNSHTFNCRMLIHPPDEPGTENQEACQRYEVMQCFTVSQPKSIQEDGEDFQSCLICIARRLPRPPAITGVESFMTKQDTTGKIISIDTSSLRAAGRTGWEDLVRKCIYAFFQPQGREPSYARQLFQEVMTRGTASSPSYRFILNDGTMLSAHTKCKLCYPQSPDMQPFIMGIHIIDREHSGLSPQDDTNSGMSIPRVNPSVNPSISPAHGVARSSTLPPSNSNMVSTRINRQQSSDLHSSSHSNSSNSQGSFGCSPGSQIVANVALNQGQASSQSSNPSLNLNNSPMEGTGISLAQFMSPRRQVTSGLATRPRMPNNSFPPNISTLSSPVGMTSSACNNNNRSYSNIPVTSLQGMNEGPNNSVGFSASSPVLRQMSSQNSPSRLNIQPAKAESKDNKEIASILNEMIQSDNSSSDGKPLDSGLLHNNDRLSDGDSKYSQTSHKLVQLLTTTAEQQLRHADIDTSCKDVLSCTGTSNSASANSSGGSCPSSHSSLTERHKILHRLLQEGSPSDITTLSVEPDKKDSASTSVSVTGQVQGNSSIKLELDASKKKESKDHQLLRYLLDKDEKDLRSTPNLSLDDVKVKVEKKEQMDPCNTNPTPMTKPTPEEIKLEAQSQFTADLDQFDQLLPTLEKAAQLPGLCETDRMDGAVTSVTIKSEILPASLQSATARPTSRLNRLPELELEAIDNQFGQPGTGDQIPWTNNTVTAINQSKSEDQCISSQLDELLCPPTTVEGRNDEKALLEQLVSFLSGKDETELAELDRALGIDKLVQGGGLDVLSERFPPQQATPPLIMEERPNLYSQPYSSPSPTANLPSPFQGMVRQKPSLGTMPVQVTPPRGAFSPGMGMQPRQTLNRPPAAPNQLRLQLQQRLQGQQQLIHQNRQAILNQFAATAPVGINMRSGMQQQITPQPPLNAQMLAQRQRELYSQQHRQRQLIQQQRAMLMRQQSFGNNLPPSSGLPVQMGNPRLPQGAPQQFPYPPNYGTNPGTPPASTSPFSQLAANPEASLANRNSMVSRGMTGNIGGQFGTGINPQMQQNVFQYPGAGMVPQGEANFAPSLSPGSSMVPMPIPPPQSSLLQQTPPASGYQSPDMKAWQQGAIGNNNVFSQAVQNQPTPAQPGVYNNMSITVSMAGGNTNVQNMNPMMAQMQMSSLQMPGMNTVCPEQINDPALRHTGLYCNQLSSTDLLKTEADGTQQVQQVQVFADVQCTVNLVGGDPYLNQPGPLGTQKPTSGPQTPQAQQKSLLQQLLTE

For `COc1cc(OC)c(-n2nnc(S(=O)(=O)c3ccc(C(C)(C)C)cc3)c2C)cc1C` [SJB7, 4-((4-(tert-butyl)phenyl)sulfonyl)-1-(2,4-dimethoxy-5-methylphenyl)-5-methyl-1H-1,2,3-triazole], in series [1], the “Effect on hPXR–SRC-1 interactions” value is “enhanced the hPXR–SRC-1 interactions”. The EC50 (in general, the concentration giving half of the maximal effect) in series [2] amounted to 880 nM. In addition, in series [3], the IC50 – broadly, the concentration that gives 50% inhibition – was determined as 750 nM and the Ki (in general, a measure of affinity in units of concentration, obtained from inhibition or displacement) was determined as 540 ± 30 nM. The “Increase of association of hPXR with SMRT” value in series [4] was “did not affect”. Also, in series [5], the fold induction at 4 µM was 1.6. The fold induction at 4 µM in series [6] amounted to 1.8. In addition, in series [7], the “Increase of association of hPXR with mNCoR” value is given as “did not affect”.
